Laboratory results from article PMC11323273, “A Multipurpose Metallophore and Its Copper Complexes with Diverse Catalytic Antioxidant Properties to Deal with Metal and Oxidative Stress Disorders: A Combined Experimental, Theoretical, and In Vitro Study” (Inorganic Chemistry, 2024).
Like-named read-outs stand apart in the source and are kept apart here.

Key:
[1] = cited from earlier work
[2] = parameters: method as in doi:10.3390/pr10010132; conditions: studied under the same conditions; read-out: RSA50; cited from earlier work
[3] = parameters: method as in PMID 4833643; conditions: cited from earlier work
[4] = test system: Rat glioma C6 cells; assay: ROS mitigation in cells using DCFH-DA; assay type: cell-based
Method: Rat C6 glioma cells were grown in a 25 cm^2 culture flask containing Dulbecco’s modified Eagle medium (DMEM) supplemented with 10% (v/v) fetal bovine serum (FBS) at 37 °C in a 5% CO2 atmosphere.
To evaluate redox homeostasis, the level of ROS was assessed using the redox-sensitive dye 2′,7′-dichlorodihydrofluorescein diacetate (DCFH-DA). Rat C6 glioma cells were seeded at a density of 1 × 10^5 cells/well in a 96-well plate and cultured in high-glucose DMEM supplemented with 10% (v/v) FBS at 37 °C in a 5% CO2 atmosphere. The cells were pretreated with the compounds (25 μmol L^–1) and incubated for 24 h. The cells were washed and subjected to different oxidative stress models for 1 h, including (i) metallic stress via the addition of 25 μmol L^–1 CuCl, (ii) direct addition of a 25 μmol L^–1 hydrogen peroxide solution, (iii) superoxide anion (O2^•–) generated by the xanthine ([…])/xanthine oxidase (0.1 unit/mL) enzymatic system, and (iv) hydroxyl radical (^•OH) generated by the Fenton reaction using 0.4 μmol L^–1 CuCl and 4 μmol L^–1 H2O2. The concentrations refer to the final concentrations of each well. After exposure to the oxidative stress conditions, the cells were washed and incubated with DCFH-DA (10 μmol L^–1) for 45 min. The fluorescence was measured using the model M200 Tecan Infinite microplate reader with excitation and emission wavelengths of 450 and 535 nm, respectively.

[5] = Potentiometric titration: protonation equilibria and species distribution; assay type: physicochemical; conditions: 70:30 ethanol/water solution, 25 °C, read-out: log K [H2L^+]/[HL][H^+] (pKa of the amine group)
Method: The potentiometric studies were carried out with a Corning 350 digital pH meter fitted with blue-glass and Ag/AgCl reference electrodes calibrated to read −log[H^+] directly, designated as pH. Doubly distilled water in the presence of KMnO4 was used to prepare the solutions. For the ligands, the study was performed in a 70:30 ethanol/water solution, while the copper complexes were studied in water. The electrode was calibrated using the data obtained from the potentiometric titration of a known volume of a standard 0.100 mol L^–1 HCl solution with a standard 0.100 mol L^–1 KOH solution. The ionic strength of the HCl solution was maintained at 0.100 mol L^–1 upon the addition of KCl. […]
The titration curves were processed with BEST7,[86] which has as input file: titrant concentration, an initial value for the number of millimoles of the species under investigation, the volume increments of the titrant added, and the corresponding values of pH measured during titration. The program uses the least-squares method to minimize the differences between the calculated pH values and the experimental ones obtained during the titration, keeping fixed the values of the known equilibrium constants, such as those for the hydrolysis of the metal ion,[87] and varying the values of the constants to be determined, minimizing the error. […]

[Cl][Cu][Cl] [CuCl2·2H2O]
IC50 [1]: 910 ± 191 nM

NC(=O)CCNCCNCCC(N)=O.[Cl-].[Cl-].[Cu+2] [[Cu(BCEN)]Cl2·2H2O]
IC50 [1]: 179 ± 17 nM

[Cl][Cu][Cl].c1ccc(CNCc2ccccn2)nc1 [[Cu(bmpa)Cl2]]
EC50 [2]: 1.07 mM

NC(=O)CCN1CCN(CCC(N)=O)CC1.[Cl-].[Cl-].[Cu+2] [[Cu(BPAP)H2O]Cl2]
IC50 [1]: 168 ± 30 nM

NC(=O)CCN1CCCN(CCC(N)=O)CC1.[Cl-].[Cl-].[Cu+2] [[Cu(BPAH)H2O]Cl2]
IC50 [1]: 129 ± 33 nM

c1ccc(CNCc2ccccn2)nc1 [bis(2-pyridylmethyl)amine, reference compound]
pKa ([3]; amine group): 7.28

[Cl][Cu] [Cu(I), CuCl, reference compound]
increase of cell fluorescence (ROS level) compared to the control ([4]; 25 μmol L^–1 CuCl, 1 h): 3 fold

CC(O)CNCc1ccccn1 (stereo not shown) [HL, 1-(pyridin-2-ylmethylamino)propan-2-ol]
antioxidant effect in cells exposed to hydroxyl radical ([4]; pretreatment 25 μmol L^–1, 24 h, 0.4 μmol L^–1 CuCl and 4 μmol L^–1 H2O2 1 h): HL ∼ 1 > 2 | redox status of cells exposed to Cu(I) (DCFH-DA fluorescence) ([4]; pretreatment 25 μmol L^–1, 24 h, 25 μmol L^–1 CuCl 1 h): no change in the cell redox status | protection of cells against exogenous H2O2 (redox level) ([4]; pretreatment 25 μmol L^–1, 24 h, 25 μmol L^–1 H2O2 1 h): maintaining the redox state at the basal level | antioxidant protection of cells against superoxide radical anion ([4]; pretreatment 25 μmol L^–1, 24 h, xanthine/xanthine oxidase 1 h): maintaining the redox state at the basal level | pKa [5]: 8.11 | pKa of the pyridine group [3]: < 3
